Laboratory results from PMC7497641, “Neurotropic activity and safety of methylene-cycloalkylacetate (MCA) derivative 3-(3-allyl-2-methylenecyclohexyl) propanoic acid” (ACS Chemical Neuroscience, 2020).

Assays:
Experiment in all cases: PhosphoSens CSox based kinase assay
Format in all cases: biochemical
[1] = molecular target: T1, CAMK2α (Homo sapiens, UniProt Q9UQM7); conditions: 5 μM HU-MCA-13
T1 construct: amino acids 1-478, Carna (cat. & lot #: 02)
Source text: (§1) The initial focus was to measure the modulatory activity in vitro of MCA-13 on protein kinases which were reported to be involved in induction of neurite outgrowth.[18],[43] To do this, we took advantage of a powerful method to measure the activity of recombinant protein kinases using a homogeneous and continuous (kinetic) format, where the level of chelation-enhanced fluorescence (CHEF) is directly proportional to the amount of phosphorylated, real-time sensors consisting of sulfonamido-oxine (Sox) chromophore linked to a peptide or protein substrates of selective kinases.[44] This assay is ideal for elucidating drug mechanism of action and is increasingly being applied earlier in the drug development workflow to address off target effects and/or the challenges and opportunities for next generation protein kinase inhibitors.[45] Since neurotrophins induce neurite outgrowth by activating the different tropomyosin kinase receptors (Trk), and small molecules agonists of Trk receptors can selectively activate Trks,[46] we first investigated the ability of HU-MCA-13 to modulate TRKA, TRKB and TRKC phosphorylation activities (Supporting Information, Figure S3-2). […] The TRKs constructs used in the assay contained only the intracellular kinase domain (amino acids 442–786) and therefore presently we cannot exclude that HU-MCA-13 may interact with the TRKs extracellular domain thereby inducing the conformational change required for the kinase domain activation. […] Moreover, no effects of HU-MCA-13were found on other kinases (ASK1, ERK2, JNK3, p38α, CDK5, KDR-VEGFR, AKT1, GSK3β, PDGFRβ, PKACα, PKC, CK1, IKKβ) which stimulate neurite outgrowth. Also, no effects were observed of HU-MCA-13 on kinases (EGFR, IGF1R, FGFR 1 and 2, CAMK2α,) which inhibit neurite outgrowth or calcineurin phosphatase which dephosphorylates the neurite outgrowth stimulatory protein, cofilin.[47]
(§2) MCA-13 safety b y in vitro eval uati on usi ng Phos pho Sens®C Soxb ased kinase […]
(§3) Method: Kinase Activity Measurements
(§4) Kinase activity was measured continuously using the PhosphoSens®technology (AssayQuant Technologies Inc., Marlborough, MA) according to the manufacturers’ recommendations (http://www.assayquant.com/) . This one-step homogeneous assay use s chelation-enh anced fluorescence via optimized substrate sensors unique for each kinase, containing the unnatural fluorogenic amino-acid Sox.
(§5) The following kinases which, upon stimulation or inhibition with small molecule modulators, induced neurite outgrowth, were obtained from different companies and were used in this study at the following concentrations: 2.
(§6) 25 µL final reaction volume including : 2.5 µl Sox-based substrate (10 x), 17.5 µl reaction mix with AT P, 5.0 µL Kinase [5x in EDB (Enzyme Dilution Buffer : 20 mM TRIS, pH 8.0, 0.01% Brij -35, 0.1 mM EGTA, 5% Glycerol, 1 mM DTT, 1 mg/mL Bovine Serum Albumin]. 5-45 min preincubation (all except EDB/kinase) at 30 °C of substrate in reaction mix and ATP ensuring that the progress kinetic curve for the background fluorescence w as flat. Reaction was run at 30 °C for […]
(§7) Final Reaction Conditions.
(§8) Protein kinase activity was determined in 54 mM HEPES, pH 7.5 1 mM ATP 1.2 mM DTT (none in ASK1) 0.012% Brij-35 1% glycerol 0.2 mg/ml BSA 0.52 mM EGTA (none in assays of CAMK2α, PKCε, PKCι, Calcineurin A/B) 140 µM phosphatidylserine/3.8 µM diacylglycerol (PKCε, PKCι only) 5 ng/µl calmodulin/0.4 mM CaCl2 (CAMK2α, Calcineurin A/B only) 10 mM […]
(§9) IKKβ, AKT1, GSK3β, PKCε, PKCι, PKACα, KDR, CK1δ, EGFR, ASK1, IGF1R, CAMK2α, DLK, FGFR2, FGFR1) in the presence or absence of 5 µ M H U-MCA-13 test compound. All components e xcept enzyme were equilibrated to 30 °C prior to setting up reactions run in Corning, 384-well, white flat round bottom polystyrene NBS microplates (Cat. #3824) after sealing using optically-clear adhesive film [TopSealA -Plus plate seal, PerkinElmer (Cat. #6050185)], applied with a roller to eliminate evaporation and resulting drift. Europium was added to a final […]

[2] = molecular target: T2, TRK B (Homo sapiens, UniProt Q16620); conditions: 5 μM HU-MCA-13; intracellular kinase domain
T2 construct: TRKB, amino acids 456 -822, BPS Bio; purchased BPS Bio 40281 (lot 130826)
Source text: as §1, §2, §3, §4, §5, §6, §7, §8, §9

[3] = molecular target: T3, FGFR 2 (Homo sapiens, UniProt P21802); conditions: 5 μM HU-MCA-13
T3 construct: purchased Carna 08-134
Source text: as §1, §2, §3, §4, §5, §6, §7, §8, §9

[4] = molecular target: T4, JNK3 (Homo sapiens, UniProt P53779); conditions: 5 μM HU-MCA-13
T4 construct: JNK 3, amino acids 1 -426, Carna; purchased Carna 04-150
Source text: as §1, §2, §3, §4, §5, §6, §7, §8, §9

[5] = molecular target: T5, TRKA (Homo sapiens, UniProt P04629); conditions: 5 μM HU-MCA-13; intracellular kinase domain
T5 construct: purchased BPS Bio 40280 (lot 151113G)
Source text: as §1, §2, §3, §4, §5, §6, §7, §8, §9

[6] = tested on: PKC; conditions: 5 μM HU-MCA-13
Source text: as §1, §2, §3, §4, §5, §6, §7, §8, §9

[7] = molecular target: T6, IGF1R (Homo sapiens, UniProt P08069); conditions: 5 μM HU-MCA-13
T6 construct: amino acids 959-1367, Carna (cat. & lot #: 08); purchased Carna 08-141
Source text: as §1, §2, §3, §4, §5, §6, §7, §8, §9

[8] = molecular target: T7, ASK1 (Homo sapiens, UniProt Q99683); conditions: 5 μM HU-MCA-13
T7 construct: ASK1, amino acids 1-1374, Invitrogen; purchased Invitrogen PV3809
Source text: as §1, §2, §3, §4, §5, §6, §7, §8, §9

[9] = molecular target: T8, EGFR (Homo sapiens, UniProt P00533); conditions: 5 μM HU-MCA-13
T8 construct: amino acids 668-1210, BPS Bio (cat. & lot #: 40187,; purchased BPS Bio 40187
Source text: as §1, §2, §3, §4, §5, §6, §7, §8, §9

T6 sequence (P08069 959-1367): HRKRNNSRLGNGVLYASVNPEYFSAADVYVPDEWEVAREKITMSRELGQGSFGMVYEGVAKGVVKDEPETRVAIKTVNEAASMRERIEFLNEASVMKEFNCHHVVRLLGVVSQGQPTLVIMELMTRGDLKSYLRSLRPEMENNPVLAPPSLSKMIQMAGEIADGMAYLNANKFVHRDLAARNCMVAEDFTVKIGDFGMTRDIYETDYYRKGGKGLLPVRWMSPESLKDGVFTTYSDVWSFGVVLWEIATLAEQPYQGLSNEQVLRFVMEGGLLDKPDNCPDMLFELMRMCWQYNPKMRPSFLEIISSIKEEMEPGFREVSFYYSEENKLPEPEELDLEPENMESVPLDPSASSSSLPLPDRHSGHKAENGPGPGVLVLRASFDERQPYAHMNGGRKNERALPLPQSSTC
T7 sequence (Q99683 whole entry, the tested form may be a part): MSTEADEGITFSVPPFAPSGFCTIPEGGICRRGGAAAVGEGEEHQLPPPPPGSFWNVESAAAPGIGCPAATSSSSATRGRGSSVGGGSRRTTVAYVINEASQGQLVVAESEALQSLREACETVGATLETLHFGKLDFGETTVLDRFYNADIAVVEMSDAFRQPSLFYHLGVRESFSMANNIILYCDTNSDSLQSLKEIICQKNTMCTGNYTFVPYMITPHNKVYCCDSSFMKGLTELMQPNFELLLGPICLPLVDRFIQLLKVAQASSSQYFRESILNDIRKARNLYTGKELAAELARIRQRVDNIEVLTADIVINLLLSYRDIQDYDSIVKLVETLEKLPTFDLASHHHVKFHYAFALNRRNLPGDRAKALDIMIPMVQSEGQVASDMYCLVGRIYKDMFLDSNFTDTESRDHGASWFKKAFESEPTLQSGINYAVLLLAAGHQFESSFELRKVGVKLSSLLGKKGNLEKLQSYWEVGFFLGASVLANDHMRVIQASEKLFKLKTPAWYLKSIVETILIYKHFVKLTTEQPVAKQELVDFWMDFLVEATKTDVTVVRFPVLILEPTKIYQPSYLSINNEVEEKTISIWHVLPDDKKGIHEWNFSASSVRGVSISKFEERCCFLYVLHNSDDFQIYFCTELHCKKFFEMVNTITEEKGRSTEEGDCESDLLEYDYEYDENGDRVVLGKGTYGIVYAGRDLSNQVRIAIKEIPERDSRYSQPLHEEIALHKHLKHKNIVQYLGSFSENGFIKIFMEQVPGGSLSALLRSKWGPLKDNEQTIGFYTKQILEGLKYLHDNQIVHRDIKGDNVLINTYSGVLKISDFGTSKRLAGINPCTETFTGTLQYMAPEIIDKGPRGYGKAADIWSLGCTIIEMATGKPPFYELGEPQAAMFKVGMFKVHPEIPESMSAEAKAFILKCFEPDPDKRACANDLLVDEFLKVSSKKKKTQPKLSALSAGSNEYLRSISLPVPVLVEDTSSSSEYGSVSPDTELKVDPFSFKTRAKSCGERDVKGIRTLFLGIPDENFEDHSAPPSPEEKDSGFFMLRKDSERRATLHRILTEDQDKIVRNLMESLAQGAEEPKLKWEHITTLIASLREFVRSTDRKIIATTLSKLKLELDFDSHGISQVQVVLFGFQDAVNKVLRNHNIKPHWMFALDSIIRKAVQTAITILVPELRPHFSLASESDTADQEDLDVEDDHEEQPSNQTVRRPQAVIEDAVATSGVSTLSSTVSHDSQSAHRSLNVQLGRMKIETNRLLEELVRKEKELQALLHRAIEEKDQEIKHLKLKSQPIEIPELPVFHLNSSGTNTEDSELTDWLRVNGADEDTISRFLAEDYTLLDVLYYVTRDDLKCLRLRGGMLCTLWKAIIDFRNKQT
T8 sequence (P00533 668-1210): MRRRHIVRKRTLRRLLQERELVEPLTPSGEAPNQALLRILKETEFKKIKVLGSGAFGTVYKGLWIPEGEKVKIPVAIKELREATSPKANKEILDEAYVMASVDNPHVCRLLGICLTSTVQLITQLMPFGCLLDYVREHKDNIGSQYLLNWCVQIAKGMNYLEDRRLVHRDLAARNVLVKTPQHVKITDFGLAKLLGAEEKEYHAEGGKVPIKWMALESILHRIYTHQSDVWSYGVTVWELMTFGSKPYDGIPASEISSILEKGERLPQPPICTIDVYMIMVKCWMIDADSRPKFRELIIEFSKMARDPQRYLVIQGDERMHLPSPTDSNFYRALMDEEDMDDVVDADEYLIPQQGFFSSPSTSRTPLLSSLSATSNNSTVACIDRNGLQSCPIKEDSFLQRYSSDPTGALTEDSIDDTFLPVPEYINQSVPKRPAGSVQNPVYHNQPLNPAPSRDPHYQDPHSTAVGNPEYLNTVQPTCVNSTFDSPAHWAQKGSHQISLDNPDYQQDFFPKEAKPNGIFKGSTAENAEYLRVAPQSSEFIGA
T3 sequence (P21802 399-821): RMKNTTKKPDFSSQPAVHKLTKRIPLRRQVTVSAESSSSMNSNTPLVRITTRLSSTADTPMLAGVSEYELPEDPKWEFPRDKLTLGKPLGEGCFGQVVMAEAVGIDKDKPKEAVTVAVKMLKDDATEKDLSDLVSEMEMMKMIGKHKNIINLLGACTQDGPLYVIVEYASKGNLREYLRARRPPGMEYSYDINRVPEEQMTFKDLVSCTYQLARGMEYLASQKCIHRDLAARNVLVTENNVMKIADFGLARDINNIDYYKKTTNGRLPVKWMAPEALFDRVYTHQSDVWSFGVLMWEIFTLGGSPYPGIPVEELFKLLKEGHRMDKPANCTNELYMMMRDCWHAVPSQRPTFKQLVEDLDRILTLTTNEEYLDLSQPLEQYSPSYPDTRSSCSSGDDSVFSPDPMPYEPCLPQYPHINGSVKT
T4 sequence (P53779 39-464): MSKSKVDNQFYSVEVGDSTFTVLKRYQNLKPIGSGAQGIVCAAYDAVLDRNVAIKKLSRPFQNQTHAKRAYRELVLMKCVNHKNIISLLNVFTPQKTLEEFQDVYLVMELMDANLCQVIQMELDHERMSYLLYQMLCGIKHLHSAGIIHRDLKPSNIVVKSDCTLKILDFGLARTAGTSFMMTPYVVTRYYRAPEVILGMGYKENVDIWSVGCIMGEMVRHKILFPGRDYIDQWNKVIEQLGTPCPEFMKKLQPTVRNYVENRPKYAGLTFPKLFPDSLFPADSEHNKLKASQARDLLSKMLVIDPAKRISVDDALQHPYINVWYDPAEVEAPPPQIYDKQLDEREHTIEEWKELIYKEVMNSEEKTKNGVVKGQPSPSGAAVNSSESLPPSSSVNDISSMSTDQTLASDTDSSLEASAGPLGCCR
T2 sequence (Q16620 456-822): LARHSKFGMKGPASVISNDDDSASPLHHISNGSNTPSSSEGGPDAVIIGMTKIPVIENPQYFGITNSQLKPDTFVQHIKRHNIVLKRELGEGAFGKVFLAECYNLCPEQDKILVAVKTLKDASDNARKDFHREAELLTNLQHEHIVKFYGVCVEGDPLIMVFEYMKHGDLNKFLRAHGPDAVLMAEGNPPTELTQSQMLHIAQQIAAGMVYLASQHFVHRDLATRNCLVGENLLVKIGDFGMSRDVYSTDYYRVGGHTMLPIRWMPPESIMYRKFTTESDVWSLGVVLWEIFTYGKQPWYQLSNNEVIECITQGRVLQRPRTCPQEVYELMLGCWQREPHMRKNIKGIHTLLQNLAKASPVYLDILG
T5 sequence (P04629 442-796): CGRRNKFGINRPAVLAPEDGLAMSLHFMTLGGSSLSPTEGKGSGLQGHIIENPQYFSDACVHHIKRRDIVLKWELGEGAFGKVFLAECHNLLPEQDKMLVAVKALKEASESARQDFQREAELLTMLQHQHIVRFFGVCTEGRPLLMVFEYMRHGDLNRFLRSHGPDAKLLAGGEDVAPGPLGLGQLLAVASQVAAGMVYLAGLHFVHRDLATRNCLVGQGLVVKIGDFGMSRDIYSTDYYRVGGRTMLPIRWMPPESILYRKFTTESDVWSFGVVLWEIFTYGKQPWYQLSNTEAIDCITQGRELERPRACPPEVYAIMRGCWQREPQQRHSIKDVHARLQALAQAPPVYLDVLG

C=CCC1CCCC(CCC(=O)O)C1=C (stereo not drawn) [HU-MCA-13, 3-(3-allyl-2-methylenecyclohexyl)propanoic acid]
no effects: effect on kinase activity [1] | modulation of phosphorylation activity [2] | effect on kinase activity [3] | effect on kinase activity [4] | modulation of phosphorylation activity [5] | effect on kinase activity [6] | effect on kinase activity [7] | effect on kinase activity [8] | effect on kinase activity [9]
